“Also recorded” adds a separate entry of the source. Structures can show the parent of a compound that is named as a salt. Where two headings read alike, the source gives them in different places.
Key:
RAW264.7 macrophages = experiment: GPBP secretion by RAW264.7 macrophages stimulated with LPS and IFN-γ (ELISA); format: cell-based
Description: FIG. 91. […]. FIG. 94. […]. In A, an assay scheme is shown; […]. […] In B, the relative expression of IL-10 in RAW264.7 macrophages cultured with conditioned media, obtained as specified in A, is shown. The analysis was carried out by quantitative RT and PCR, using HPRT-1 as a normalizer. In this case, the reference point were cells treated with a conditioned medium in absence of N26 (RQ=1 value), and the increased IL-10 expression was verified; the analysis included non-stimulated cells cultured in a fresh, non-conditioned medium (cells).
[…]; then, they were stimulated with LPS (0.5 μg/mL) and IFN-γ (20 ng/mL) for 16 hours, after which the GPBP concentration in culture media was determined by ELISA.
FIG. 104. […]. RAW264.7 cells (control cells) were treated as indicated (10 mM) for 2 hours and subsequently stimulated with LPS (0.5 μg/mL) and IFN-γ (20 ng/mL) for 16 hours; […].
FIG. 105. […]. then, the GPBP concentration in culture media was determined by ELISA.

[1] = tested on: rat model of streptozotocin-induced diabetes; experiment: Blood glucose levels in rat model of streptozotocin-induced diabetes, 14 days oral; details: mean ± SD; for Blood glucose levels before TI/RI administration, Day −3 (before STZ administration): rats, baseline before STZ and before first TI/RI administration
blood glucose level = experiment: Effect of metformin compounds on the glucokinetic profile after oral glucose overload; format: in vivo, Rat; details: rat, 750 mg/kg referred to metformin base, mean ± SD; for Blood glucose level, 0.25 h post-glucose overload / Blood glucose level, 1 h post-glucose overload / Blood glucose level, 4 h post-glucose overload / Blood glucose level, pre-glucose overload: *p<0.05 vs vehicle; for Blood glucose level, 3 h post-glucose overload: *p<0.05, **p<0.01 vs vehicle
[2] = tested on: RAW264.7 macrophages and L1 adipocytes co-cultures; experiment: Cytometric analysis of RAW + L1 co-cultures; format: cell-based, Mice; details: for EVENTS, F4/80^+CD86^− (first line) / %, F4/80^+CD86^− (second line) / EVENTS, F4/80^+CD86^− (second line) / %, F4/80^+CD86^− (first line) / %, F4/80^+: 10 mM, 24 hours; for %, F4/80^+CD86^− (second line): M1 macrophage percentage of total macrophages; for EVENTS, F4/80^+CD86^− (second line): M1 macrophages; for %, F4/80^+CD86^− (first line): of total macrophages; for %, F4/80^+: total macrophages; for reduction of the proportion of macrophages in M1: co-cultures
Text: One of the key pathogenic events in hyperglycemia of obese patients is the emergence of a pathogenic feedback between adipose tissue and macrophages of the immune system, in which adipocytes attract macrophages, polarizing them to pro-inflammatory phenotypes, and polarized macrophages secrete cytokines, promoting resistance to adipocyte insulin (Johnson A M, Olefsky J M. Cell. 2013; 152:673-84). To reproduce this pathogenic dialogue ex vivo and investigate the activity of SLNs compounds thereon, cytometric techniques allowing the discrimination between these cell lines and determination of phenotypic changes in macrophages in response to individual compounds (Table 18) were used.
RAW264.7 macrophages were added to adipocyte cultures, and the co-culture was maintained in DMEM supplemented with 10% FBS and antibiotics for 8 hours. […]. Next, cells were washed with PBS and collected by mechanical methods (without trypsin) to prevent protein loss from the cell surface. Cells were then blocked (FcBlock, BD Pharmingen) for 15 minutes at 4° C., and incubated for 20-30 minutes at 4° C. in darkness with anti-mouse F4/80 (eBioscience), conjugated with PerCP-Cy5.5, to mark macrophages, and anti-mouse CD86 (BioLegend), conjugated with PE-Cy7.7, to mark macrophages M1 specifically. Afterwards, cells were washed three times with PBS and centrifuged (500×g, 10 minutes, 4° C.), after which they were analyzed with a cytometer (FACSVerse, BD). In Table 6, the M1 macrophage percentage of the total macrophages analyzed (burgundy) for each treatment is highlighted in yellow.

[3] = tested on: GPBP, LKB1/STRADα/MO25, AMPK, AS160; experiment: In vitro phosphorylation of GPBP with LKB1 complex, AMPK and AS160; details: LKB1 complex without GPBP
[4] = tested on: RAW264.7 macrophages and L1 adipocytes co-cultures; experiment: Glucose consumption in macrophage and adipocyte co-cultures; format: cell-based, Mice; details: 10 mM, 30 hours (FIG. 80)
insulin receptor = experiment: Insulin receptor β subunit in plasma membrane of C2C12 myotubes; format: cell-based, Mice; details: 10 mM, 3 hours (FIG. 76), listed as SLN10
Description: FIG. 76. Metformin lysinate promotes the accumulation of insulin receptor β subunit in plasma membrane. C2C12 cells were differentiated for 5 days in DMEM supplemented with 2% horse serum; then, cultures were treated for 3 hours with SLN1 or SLN10 10 mM, or with vehicle (control) at 37° C. Similar quantities of each extract were analyzed by Western blot with insulin receptor subunit (IRP) specific antibodies.

CN(C)C(=N)N=C(N)N [Metformin hydrochloride, metformin hydrochloride, reference compound] was tested, and the GPBP secretion (RAW264.7 macrophages; 10 mM, LPS 0.5 μg/mL and IFN-γ 20 ng/mL (FIG. 91)) was “did not induce significantly the secretion of GPBP”, the “Blood glucose levels before TI/RI administration, Day −3 (before STZ administration)” value [1] was 120.00 ± 8.72 mg/dL and the “Blood glucose level, 0.25 h post-glucose overload” value (blood glucose level) was 93.75 ± 15.78 mg/dL. The “Blood glucose level, 0.5 h post-glucose overload” value (blood glucose level) was 89.50 ± 9.98 mg/dL, the “Blood glucose level, 1 h post-glucose overload” value (blood glucose level) was 88.25 ± 10.63 mg/dL and the “Blood glucose level, 2 h post-glucose overload” value (blood glucose level) was 74.00 ± 10.58 mg/dL. The “Blood glucose level, 3 h post-glucose overload” value (blood glucose level) was 85.75 ± 7.37 mg/dL, the “Blood glucose level, 4 h post-glucose overload” value (blood glucose level) was 83.75 ± 7.23 mg/dL and the “Blood glucose level, 6 h post-glucose overload” value (blood glucose level) was 89.00 ± 11.80 mg/dL. For the same compound, the “Blood glucose level, pre-glucose overload” value (blood glucose level) was 77.00 ± 8.08 mg/dL, the “EVENTS, F4/80^+CD86^− (first line)” value [2] was 551 and the “%, F4/80^+CD86^− (second line)” value [2] was 65.76%. The “EVENTS, F4/80^+CD86^− (second line)” value [2] was 1,058, the “%, F4/80^+CD86^− (first line)” value [2] was 34.24% and the “%, F4/80^+” value [2] was 100.00%. For the same compound, the “reduction of the proportion of macrophages in M1” value [2] was “lowest activity”.

With metformin lysinate the GPBP secretion (RAW264.7 macrophages) was “induces cGPBP secretion; also recorded: induced GPBP secretion strongly”, the “biological activity (GPBP secretion) with equimolar MgCl2 or CaCl2” value (RAW264.7 macrophages) was “reduce the biological activity” and the “cGPBP levels in conditioned medium” value (RAW264.7 macrophages) was “approximately 200 ng/mL”. The “Blood glucose levels before TI/RI administration, Day −1” value ([1]; STZ-diabetic rats, before first TI/RI administration, n.d. = all values beyond ULOD of glucometer (600 mg/dl), § n=1, ¢ n=2) was 577.00^§ ± n.d.^§ mg/dL, the “Blood glucose levels before TI/RI administration, Day −3 (before STZ administration)” value [1] was 114.00 ± 6.93 mg/dL and the “Blood glucose level, 0.25 h post-glucose overload” value (blood glucose level) was 108.33 ± 14.57 mg/dL. For the same compound, the “Blood glucose level, 0.5 h post-glucose overload” value (blood glucose level) was 101.00 ± 15.13 mg/dL, the “Blood glucose level, 1 h post-glucose overload” value (blood glucose level) was 106.00 ± 15.72 mg/dL and the “Blood glucose level, 2 h post-glucose overload” value (blood glucose level) was 94.00 ± 19.47 mg/dL. The “Blood glucose level, 3 h post-glucose overload” value (blood glucose level) was 84.67 ± 7.09 mg/dL, the “Blood glucose level, 4 h post-glucose overload” value (blood glucose level) was 89.00 ± 5.29 mg/dL and the “Blood glucose level, 6 h post-glucose overload” value (blood glucose level) was 98.33 ± 9.07 mg/dL. The “Blood glucose level, pre-glucose overload” value (blood glucose level) was 93.33 ± 22.48 mg/dL, the “LKB1 autophosphorylation and STRADα phosphorylation” value [3] was “trigger a discrete LKB1 autophosphorylation” and the “EVENTS, F4/80^+CD86^− (first line)” value [2] was 566. For the same compound, the “%, F4/80^+CD86^− (second line)” value [2] was 62.96%, the “EVENTS, F4/80^+CD86^− (second line)” value [2] was 962 and the “%, F4/80^+CD86^− (first line)” value [2] was 37.04%. The “%, F4/80^+” value [2] was 100.00%, the “reduction of the proportion of macrophages in M1” value [2] was “strongest effect” and the “glucose consumption of co-cultures” value [4] was “stronger”. The “accumulation of insulin receptor in the plasma membrane” value (insulin receptor) was “promotes the accumulation of insulin receptor in the plasma membrane”.
